What was measured:
[1] = tested on: Human immunodeficiency virus 1; experiment: Antiviral activity against wild type HIV-1 infected in human MT4 cells by MTT assay; format: functional, organism-based; conditions: Human immunodeficiency virus 1, MT4
[2] = Cytotoxicity against human MT4 cells by MTT assay; format: cell-based
[3] = tested on: Human immunodeficiency virus 1; experiment: Antiviral activity against HIV-1 harbouring T174I mutant infected in human MT4 cells by MTT assay; format: functional, organism-based; conditions: Human immunodeficiency virus 1, MT4
[4] = Metabolic stability in human liver microsomes assessed as parent compound remaining; format: ADME, Microsome
[5] = Metabolic stability in rat liver microsomes assessed as parent compound remaining; format: ADME, Microsome
[6] = Total clearance in rat at 0.5 mg/kg, iv or 1 mg/kg, po; format: ADME, organism-based; conditions: in vivo
[7] = AUC in rat at 0.5 mg/kg, iv; format: ADME, organism-based; design: dose 0.5 mg/kg; conditions: in vivo
[8] = Elimination half-life in rat at 0.5 mg/kg, iv or 1 mg/kg, po; format: ADME, organism-based; conditions: in vivo, read-out: LambdaZ (converted)
[9] = Oral bioavailability in rat at 1 mg/kg; format: ADME, organism-based; conditions: in vivo

| Structure (SMILES) | EC50 [1] [µM] | CC50 [2] [µM] | EC50 [3] [µM] | other results |
| --- | --- | --- | --- | --- |
| Cc1ccc(-c2c(C)nc(Nc3nc4ccccc4s3)c(C)c2C(OC(C)(C)C)C(=O)O)cc1C (stereo not given) | 0.35 | 6.6 |  |  |
| Cc1ccc(-c2c(C)nc(NC(=O)NC3CCCC3)c(C)c2C(OC(C)(C)C)C(=O)O)cc1C (stereo not given) | 0.0083 | 8 | > 1 |  |
| Cc1ccc(-c2c(C)nc(NC(=O)NC3CCOCC3)c(C)c2C(OC(C)(C)C)C(=O)O)cc1C (stereo not given) | 0.045 | 29 | > 5 |  |
| Cc1nc(NC(=O)NC2CCCCC2)c(C)c(C(OC(C)(C)C)C(=O)O)c1-c1ccc(Cl)cc1 (stereo not given) | 0.017 | 16 | 1.8 |  |
| Cc1nc(NC(=O)NC2CCCCC2)c(C)c(C(OC(C)(C)C)C(=O)O)c1-c1ccc2c(c1C)CCCO2 (stereo not given) | 0.0066 | 11 | 0.27 |  |
| Cc1ccc(-c2c(C)nc(NC(=O)NCc3ccccc3)c(C)c2C(OC(C)(C)C)C(=O)O)cc1C (stereo not given) | 0.035 | 17 | > 4 |  |
| Cc1nc2ccccc2c(-c2ccc3c4c(ccnc24)CCO3)c1[C@H](OC(C)(C)C)C(=O)O [BI-224436] | 0.022 | > 50 | > 5 |  |
| Cc1ccc(-c2c(C)nc(NC(=O)NC3CCCCC3)c(C)c2C(OC(C)(C)C)C(=O)O)cc1C (stereo not given) | 0.0066 | 7.9 | > 1 | Stabilty [4]: 65%; Stabilty [5]: 66%; clearance [6]: 12.5 mL/min/kg; AUC [7]: 127 ng·h/mL; half-life [8]: 1.6 h; bioavailability [9]: 9.2% |
| Cc1nc(NC(=O)NC2CCCCC2)c(C)c(C(OC(C)(C)C)C(=O)O)c1-c1ccc2c(c1)CCCO2 (stereo not given) | 0.021 | 17 | 0.56 |  |
| Cc1ccc(-c2c(C)nc(NS(=O)(=O)c3cccc4ccccc34)c(C)c2C(OC(C)(C)C)C(=O)O)cc1C (stereo not given) | 0.032 | 16 | 1 |  |
| Cc1nc(NC(=O)NC2CCCCC2)c(C)c(C(OC(C)(C)C)C(=O)O)c1-c1ccc(C(F)(F)F)cc1 (stereo not given) | 0.061 | 9.8 | 7.7 |  |
| Cc1ccc(-c2c(C)nc(NC(=O)NCCc3ccccc3)c(C)c2C(OC(C)(C)C)C(=O)O)cc1C (stereo not given) | 0.02 | 11 | > 2 |  |
| Cc1nc(NC(=O)NC2CCCCC2)c(C)c(C(OC(C)(C)C)C(=O)O)c1-c1ccc2c(c1)NCCO2 (stereo not given) | > 0.1 | 30 |  |  |
| COc1ccc(-c2c(C)nc(NC(=O)NC3CCCCC3)c(C)c2C(OC(C)(C)C)C(=O)O)cc1 (stereo not given) | 0.01 | 19 | 0.75 |  |
| COc1ccc(Nc2nc(C)c(-c3ccc(C)c(C)c3)c(C(OC(C)(C)C)C(=O)O)c2C)cc1 (stereo not given) | 0.22 | 28 |  |  |
| Cc1ccc(-c2c(C)nc(C(=O)NCc3ccccc3)c(C)c2C(OC(C)(C)C)C(=O)O)cc1C (stereo not given) | 0.18 | 54 |  |  |
| Cc1ccc(-c2c(C)nc(NC(=O)Nc3ccccc3)c(C)c2C(OC(C)(C)C)C(=O)O)cc1C (stereo not given) | 0.011 | 9.9 | > 1 |  |
| Cc1ccc(-c2c(C)nc(C(=O)N(C)Cc3ccccc3)c(C)c2C(OC(C)(C)C)C(=O)O)cc1C (stereo not given) | 0.36 | 77 |  |  |
| Cc1ccc(-c2c(C)nc(Nc3nc4ccccc4n3C)c(C)c2C(OC(C)(C)C)C(=O)O)cc1C (stereo not given) | 0.19 | 14 |  |  |
| Cc1ccc(-c2c(C)nc(NC(=O)NC3CCCCCC3)c(C)c2C(OC(C)(C)C)C(=O)O)cc1C (stereo not given) | 0.011 | 7.7 | > 1 |  |
